What was measured:
[1] = tested on: Human immunodeficiency virus 1; assay: Antiviral activity against HIV1 harboring reverse transcriptase K103N/Y181C mutant infected in human MT4 cells assessed as reduction in virus-induced cytopathogenicity after 5 days by MTT assay; type: functional, organism-based; details: Human immunodeficiency virus 1, MT4, 120 h
[2] = Selectivity index, ratio of CC50 for human MT4 cells to EC50 for HIV1 3B; type: toxicity, cell-based; details: read-out: Ratio CC50/EC50
[3] = tested on: Human immunodeficiency virus 2; assay: Antiviral activity against HIV2 ROD infected in human MT4 cells assessed as reduction in virus-induced cytopathogenicity after 5 days by MTT assay; type: functional, organism-based; details: Human immunodeficiency virus 2, ISOLATE ROD, MT4, 120 h
[4] = Cytotoxicity against human MT4 cells measured by MTT assay; type: cell-based
[5] = tested on: Human immunodeficiency virus 1; assay: Antiviral activity against wild type HIV1 3B infected in human MT4 cells assessed as reduction in virus-induced cytopathogenicity after 5 days by MTT assay; type: functional, organism-based; details: Human immunodeficiency virus 1, 3B, MT4, 120 h

| Structure (SMILES) | EC50 [1] | selectivity ratio [2] | EC50 [3] | CC50 [4] | EC50 [5] |
| --- | --- | --- | --- | --- | --- |
| Cc1cc(SC2CCCCC2)nc(Nc2ccc(C#N)cc2)n1 | > 192000 nM | ≥ 2010 | > 192000 nM | ≥ 192000 nM | 96 nM |
| N#Cc1ccc(Nc2nccc(OC3CCCCC3)n2)cc1 | > 322000 nM | 276 | > 322000 nM | 322000 nM | 1160 nM |
| N#Cc1ccc(Nc2nccc(OC3CCCC3)n2)cc1 | > 340000 nM | ≥ 51 | 31300 nM | ≥ 340000 nM | 6710 nM |
| Cc1cnc(Nc2ccc(C#N)cc2)nc1OC1CCCCC1 | > 31200 nM | 5 | > 31200 nM | 31200 nM | 6490 nM |
| Cc1cnc(Nc2ccc(C#N)cc2)nc1OC1CCCC1 |  | < 1 | > 9990 nM | 9990 nM | > 9990 nM |
| Cc1cc(OC2CCCCC2)nc(Nc2ccc(C#N)cc2)n1 |  | < 1 | > 320 nM | 320 nM | > 320 nM |
| Cc1cc(OC2CCCC2)nc(Nc2ccc(C#N)cc2)n1 |  | < 1 | > 1050 nM | 1050 nM | > 1050 nM |
| N#Cc1ccc(Nc2nccc(NC3CCCCC3)n2)cc1 | > 7330 nM | 8 | > 7330 nM | 7330 nM | 960 nM |
| N#Cc1ccc(Nc2nccc(NC3CCCC3)n2)cc1 | > 9130 nM | 6 | > 9130 nM | 9130 nM | 1580 nM |
| N#Cc1ccc(Nc2nccc(NC3CC3)n2)cc1 |  | < 1 | > 1190 nM | 1190 nM | > 1190 nM |
| Cc1cnc(Nc2ccc(C#N)cc2)nc1NC1CCCCC1 |  | < 1 | > 1300 nM | 1300 nM | > 1300 nM |
| Cc1cnc(Nc2ccc(C#N)cc2)nc1NC1CCCC1 |  | < 1 | > 170 nM | 170 nM | > 170 nM |
| Cc1cnc(Nc2ccc(C#N)cc2)nc1NC1CC1 |  | < 1 | > 360 nM | 360 nM | > 360 nM |
| Cc1cc(NC2CCCCC2)nc(Nc2ccc(C#N)cc2)n1 |  | < 1 | > 340 nM | 340 nM | > 340 nM |
| Cc1cc(NC2CCCC2)nc(Nc2ccc(C#N)cc2)n1 |  | < 1 | > 310 nM | 310 nM | > 310 nM |
| Cc1cc(NC2CC2)nc(Nc2ccc(C#N)cc2)n1 |  | < 1 | > 88 nM | 88 nM | > 88 nM |
| N#Cc1ccc(Nc2nccc(SC3CCCCC3)n2)cc1 | > 403000 nM | > 7290 | > 403000 nM | > 403000 nM | 55 nM |
| Cc1cnc(Nc2ccc(C#N)cc2)nc1SC1CCCCC1 | > 33400 nM | 79 | > 33400 nM | 33400 nM | 430 nM |
| CC(C)Nc1cccnc1N1CCN(C(=O)c2cc3cc(NS(C)(=O)=O)ccc3[nH]2)CC1 [DELAVIRDINE] | > 4390 nM | > 274 |  | > 4390 nM | 16 nM |
| O=C1Nc2ccc(Cl)cc2[C@@](C#CC2CC2)(C(F)(F)F)O1 [EFAVIRENZ] | 510 nM | > 1150 |  | > 6340 nM | 5.4 nM |
| Cc1cc(C#N)cc(C)c1Oc1nc(Nc2ccc(C#N)cc2)nc(N)c1Br [ETRAVIRINE] | 34 nM | 12900 | > 27800 nM | 27800 nM | 2.2 nM |
| Cc1ccnc2c1NC(=O)c1cccnc1N2C1CC1 [NEVIRAPINE] | 3490 nM |  | > 15000 nM | > 15000 nM |  |
| Cc1cn([C@H]2C[C@H](N=[N+]=[N-])[C@@H](CO)O2)c(=O)[nH]c1=O [ZIDOVUDINE] | 13 nM | ≥ 6360 | 7.5 nM | ≥ 46400 nM | 7.5 nM |

— ChEMBL document CHEMBL1926600, “Design, synthesis and biological evaluation of cycloalkyl arylpyrimidines (CAPYs) as HIV-1 NNRTIs” (Bioorg Med Chem, 2011)
